Tests used:
[1] = test system: reverse transcriptase in Rauscher murine leukemia virus; conditions: in vitro; cited from earlier work
[2] = in vivo, po; cited from earlier work
[3] = type: physicochemical
Experimental: The material forms white to pale beige monoclinic crystals with unit cell parameters of about a=7.899(1)Å, b=8.765(1)Å, c=31.626(2)Å, beta=103.253(7) degrees, V=2131 Å^3, based on powder x-ray diffraction analysis. The solubility of this compound is measured as about 5 millimolar in distilled deionized water at 23° C. Crystallization from other solvents or under other conditions may produce other crystal structures. Under some conditions, water or other solvents may also be incorporated into the structure. […] About 5.5 grams of powdered anhydrous sodium carbonate are added, and stirring continues for additional 12 minutes. […] The remaining crystalline solid is the 3:1 maltol gallium composition. […] The solubility of this composition is measured as about 24 millimolar in distilled deionized water at 23° C.

HIV-1 = conditions: at subinhibitory concentrations; cited from earlier work

Structure (SMILES): [Ga] [Gallium]
- Inhibition of reverse transcriptase [1]: shown in vitro to inhibit the enzyme reverse transcriptase

Structure (SMILES): CCc1occc(=O)c1O [ethyl maltol, 3-hydroxy-2-ethyl-4-pyrone]
- Toxicity when taken orally [2]: very low toxicities

Structure (SMILES): CCc1occc(=O)c1[O-].CCc1occc(=O)c1[O-].CCc1occc(=O)c1[O-].[Ga+3] [gallium ethyl maltolate, tris(3-hydroxy-2-ethyl-4H-pyran-4-onato)gallium]
- Solubility [3]: about 5 millimolar

Structure (SMILES): O=[N+]([O-])[O-].O=[N+]([O-])[O-].O=[N+]([O-])[O-].[Ga+3] [gallium nitrate]
- Effect on inhibitory effects of nucleoside analogs (HIV-1): potentiated the inhibitory effects of zidovudine, azidothymidine (AZT), dideoxy inosine (ddI), and dideoxy cytosine (ddC)

Structure (SMILES): Cc1occc(=O)c1O [maltol, 3-hydroxy-2-methyl-4-pyrone]
- Toxicity when taken orally [2]: very low toxicities

Source: patent US20060222628A1, “Gallium complexes of 3-hydroxy-4-pyrones to treat infection by intracellular prokaryotes and DNA viruses” (priority 1999, published 2006)
